In patent US20230405118A1, “STAT-ACTIVATED MACROPHAGES, COMPOSITIONS, AND USES THEREOF” (THE GEORGE WASHINGTON UNIVERSITY, A CONGRESSIONALLY …, priority 2020, published 2023):

What was measured:
Type in all cases: cell-based, mouse
[1] = tested on: Arginase I; assay: Arginase I gene expression by quantitative real-time PCR in pre-treated macrophages; details: FIG. 2
Protocol: (§1) Bone marrow derived macrophages (BMDMs): For macrophage isolation, bone marrow from 6-12 weeks old C57BL/6 mouse was used following an IACUC approved protocol. Briefly, femurs and tibia bones were isolated after removing the skeletal muscles. The bone marrow was flushed with RPMI complete medium supplemented with non-essential amino acids. A single-cell suspension of bone marrow was prepared with repeated pipetting and incubated with 20 ng/mL of mouse recombinant M-CSF (Biolegend) at 37° C. for 4 days to differentiate into macrophages.
(§2) Bone marrow derived macrophages (BMDMs) were differentiated into macrophages with M-CSF. These naïve macrophages were pre-treated with Nexturastat A (NextA) or 6-nitrobenzo[b]thiophene-1,1-dioxide (Stattic) and polarized to M2 macrophages with IL4/IL13. Pre-treatment with NextA and Stattic decreased polarization of M2 macrophages as indicated by flow cytometry.
(§3) Further validation of M2 polarization markers at gene expression levels by quantitative real-time PCR indicate that Arginase I, TGFβ, and FIZZ1, which are tumor-promoting factors, were decreased. FIG. 2, FIG. 3, and FIG. 4.

[2] = tested on: FIZZ1; assay: FIZZ1 gene expression by quantitative real-time PCR in pre-treated macrophages; details: FIG. 4
Protocol: as §1, §2, §3

[3] = tested on: M2 macrophages (bone marrow derived macrophages polarized with IL4/IL13); assay: M2 polarization of pre-treated BMDMs, CD206 marker by flow cytometry; details: naïve BMDMs pre-treated with compound, then polarized to M2 with IL4/IL13; FIG. 1
Protocol: as §1
Flow cytometry: Flow cytometry was performed following the protocol described previously. Knox et al., Sci Rep. 2019 Oct. 10; 9(1):14824. doi: 10.1038/s41598-019-51403-6. Briefly, mice were euthanized following the IACUC protocol, and tumor cells were processed into a single cell suspension for analysis by flow cytometry with tumor digestion buffer. The following antibodies were used to stain cell surface markers expressed by different immune cells. All the antibodies were purchased from Biolegend (San Diego, CA) unless otherwise specified. Myeloid cell surface markers are as follows: APC anti-mouse CD80 (clone 16-10A1), PE/Cy7 anti-mouse CD206 (MMR) (clone C068C2), APC/Fire™ 750 anti-mouse CD45.2 (clone 104), FITC anti-mouse H-2 (clone M1/42), Brilliant Violet 785TM anti-mouse F4/80 (clone BM8), and Alexa Fluor® 700 anti-mouse CD3 (clone 17A2). […]

[4] = tested on: TGFβ; assay: TGFβ gene expression by quantitative real-time PCR in pre-treated macrophages; details: FIG. 3
Protocol: as §1, §2, §3

Row | Arginase I expression level (M2 polarization marker) [1] | SMILES | FIZZ1 expression level (M2 polarization marker) [2] | polarization of M2 macrophages (CD206 as marker, flow cytometry) [3] | TGFβ expression level (M2 polarization marker) [4]
1 | decreased | CCCCN(Cc1ccc(C(=O)NO)cc1)C(=O)Nc1ccccc1 [NextA, Nexturastat A] | decreased | decreased | decreased
2 | decreased | O=[N+]([O-])c1ccc2c(c1)S(=O)(=O)C=C2 [Stattic, 6-nitrobenzo[b]thiophene-1,1-dioxide] | decreased | decreased | decreased
